In patent US20240417410A1, “TRICYCLIC COMPOUNDS FOR THE TREATMENT OF CANCER” (Hoffmann-La Roche Inc., priority 2023, published 2024):
Read-outs that look alike come from different tables or passages of the source.

Key:
NCI-H2122 (KRAS G12C) = experiment: Washout viability assay; assay type: cell-based; conditions: for IC50: Homo sapiens; for IC50 shift fold: washout vs no-washout
Experimental: (§1) Cancer cell lines NCI-H358, NCI-H2122, and SW480 (purchased from ATCC) were cultured in RPMI1640 (Thermo Fisher Scientific) medium plus 10% Fetal Bovine Serum (FBS, Thermo Fisher Scientific, 2.5 μg/mL puromycin and 1% Antibiotic-Antimycotic (Thermo Fisher Scientific) and plated at a density of 2,000 cells per well in 96-well assay plates (Corning-3699) and incubated overnight. On the assay day, compounds diluted to a final DMSO concentration of 0.5% were added to the wells. Following a 4-hour incubation period, the culture medium was removed, and the cells were washed three times with RPMI1640 medium only before being cultured in the abovementioned culture medium (RPMI1640+10% FBS+1% antibiotic-antimycotic). After 72 hours, a tenth of the volume of Cell Counting Kit-8 (Dojindo-CK04) was added to each well. The absorbance was measured (OD450 minus OD650) using an EnVision plate reader after a further 2-hour incubation. The IC50 values were calculated by applying a four-parameter sigmoidal concentration-response curve fit to the data.

SW480 (KRAS G12V) = experiment: Washout viability assay; assay type: cell-based; conditions: for IC50: Homo sapiens; for IC50 shift fold: washout vs no-washout
Experimental: as §1

NCI-H358 (KRAS G12C) = experiment: Washout viability assay; assay type: cell-based; conditions: for IC50: Homo sapiens; for IC50 shift fold: washout vs no-washout
Experimental: as §1

human hepatocytes = experiment: Human hepatocyte stability assay; assay type: in vitro ADME; conditions: 1 μM compound, human hepatocytes 1×10^6 cells/mL
Experimental: The hepatocyte stability assay measures the rate of disappearance of a compound from incubations with cryopreserved suspension hepatocytes from human. Positive controls, including Midazolam, Raloxifene and Dextromethorphan, are included in every experiment. Incubations consist of 1 μM tested compound and suspension of human hepatocytes (1×10^6 cells/mL) in supplemented Williams' E Medium with 10% FBS and 0.5% Penicillin-streptomycin. The hepatocyte suspension was incubated with intermittent shaking 900 rpm at 37° C., in a 5% CO2 incubator. The reaction was stopped by adding methanol containing internal standard (2 μM Tolbutamide) at 2, 10, 20, 40, 60 and 120 minutes after compound addition, depletion of the parent compound was monitored by LC-MS/MS analysis.

WT HRAS-BRAF complex = WT HRAS-BRAF complex (Homo sapiens (Human), UniProt P01112+P62937); experiment: WT HRAS-BRAF with CYPA interaction assay (TR-FRET); assay type: biochemical; conditions: WT HRAS
Chain of WT HRAS-BRAF complex (P01112 whole entry, looked up): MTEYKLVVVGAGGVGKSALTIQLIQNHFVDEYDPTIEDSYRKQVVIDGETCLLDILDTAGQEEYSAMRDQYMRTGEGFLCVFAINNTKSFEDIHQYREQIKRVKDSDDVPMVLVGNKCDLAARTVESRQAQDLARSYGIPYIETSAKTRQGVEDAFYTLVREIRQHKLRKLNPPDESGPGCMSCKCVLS
Chain of WT HRAS-BRAF complex (P62937 whole entry, looked up): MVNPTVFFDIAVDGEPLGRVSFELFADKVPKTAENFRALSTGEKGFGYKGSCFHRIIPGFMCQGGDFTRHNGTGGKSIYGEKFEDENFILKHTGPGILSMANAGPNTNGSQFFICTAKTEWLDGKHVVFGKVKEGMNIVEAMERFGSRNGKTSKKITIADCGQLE
Experimental: (§2) In this example, TR-FRET was used to measure the compound or compound-CYPA dependent disruption of the KRAS G12V-BRAF complex to assess inhibition efficacy. The IC50 ratio between WT KRAS/HRAS/NRAS and KRAS G12V mutant was calculated as selective index, which indicated tolerability and safety profile. Disruption of WT KRAS/HRAS/NRAS-BRAF complex by compounds was detected respectively. In assay buffer containing 25 mM HEPES (PH-7.4,4-(2-hydroxyethyl)-1-piperazineethanesulfonic acid, Thermo, 15630080), 0.002% Tween20, 0.1% BSA, 100 mM NaCl, 5 mM MgCl2, 10 μM GMPPNP (Guanosine 5′-[β,γ-imido]triphosphate trisodium salt hydrate, Sigma, G0635), tagless CYPA and GMPPNP loaded 6His-RAS proteins, and GST-BRAF^RBD were mixed in a well of a 384-well assay plate at final concentrations of 50 nM, 6.25 nM and 1 nM, respectively. Compound was present in plate wells as a 16-point 3-fold dilution series starting at a final concentration of 10 μM and incubated for 3 hours. A mixture of MAb Anti-6His-XL665 (Cisbio, 61HISXLB) and Mab anti-GST-TB cryptate (Cisbio, 61GSTTLB) was then added at a final concentration of 6.67 nM and 0.21 nM, respectively, and the plate was incubated for an additional 1.5 hours. TR-FRET signal was read on a PHERstar FSX microplate reader (Ex320 nm, Em 665/615 nm). Compounds that facilitate disruption of the RAS-BRAF complex were identified as those eliciting a decrease in the TR-FRET ratio relative to DMSO control wells.

WT KRAS-BRAF complex = WT KRAS-BRAF complex (Homo sapiens (Human), UniProt P01116+P62937); experiment: WT KRAS-BRAF with CYPA interaction assay (TR-FRET); assay type: biochemical; conditions: WT KRAS
Chain of WT KRAS-BRAF complex (P01116-2 whole entry, looked up): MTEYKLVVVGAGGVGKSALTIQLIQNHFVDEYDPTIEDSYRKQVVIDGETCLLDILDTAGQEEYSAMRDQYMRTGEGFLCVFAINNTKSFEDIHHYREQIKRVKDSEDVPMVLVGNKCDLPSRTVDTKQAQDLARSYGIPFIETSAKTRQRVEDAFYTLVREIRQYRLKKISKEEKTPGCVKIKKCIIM
Chain of WT KRAS-BRAF complex (P62937 whole entry, looked up): as the sequence (P62937 whole entry, looked up) above
Experimental: as §2

[1] = tested on: panel of 119 human cancer cell lines with RAS mutations or amplifications; experiment: Cell proliferation analysis, panel of 119 human cancer cell lines; assay type: cell-based; conditions: RAS addicted cell panels (n=119), read-out: median IC50
Experimental: The objective of this study was to evaluate the extent and degree to which Example 24 or A122 inhibits cell proliferation in a panel of 119 human cancer cell lines with RAS mutations or amplifications across various histological subtypes.
On Day-1, cells were plated in 384-well round-bottom ultra-low adhesion plates (cat. Corning 3830, with cell density adjusted according to Table 3. The assay plate was then centrifuged at 1000 rpm for 1 minute to ensure even distribution of cells. The plate was incubated at 37° C. in a 5% CO2 atmosphere (It is worth noting that for SW1271 cell plate, it needs to be incubated in an incubator without additional CO2).
On Day 0, Example 24 or A122 was added to each well using a Tecan HP D300E dispenser, with a 3-fold dilution across 9 doses. The final concentration of DMSO was normalized to 0.2%. The assay plate was then centrifuged at 1000 rpm for 1 minute and incubated for 7 days.
On Day 7, CellTiter-Glo (CTG) 3D reagent (Promega G9683) was dispensed into each well of a 384-well plate using a multi-drop dispenser (Thermo Scientific 66413). […]
For data analysis, the XL-fit software (Supplier: ID Business Solutions Ltd., Software version: XL fit 5.0) was utilized. The percentage of inhibition was calculated using the formula: Inhibition %=(Max-Sample value)/(Max-Min)×100. […]

[2] = NCI-H2122 (KRAS G12C), 4-hour treatment, three washes, 72 hours, read-out: Washout IC50
[3] = NCI-H2122, KRAS (G12C), read-out: No-washout IC50
[4] = 4-hour treatment, three washes, 72 hours, read-out: Washout IC50
[5] = NCI-H358 (KRAS G12C), 4-hour treatment, three washes, 72 hours, read-out: Washout IC50
[6] = NCI-H358, KRAS (G12C), read-out: No-washout IC50

SMILES	IC50 (NCI-H2122 (KRAS G12C); [2]) [nM]	IC50 (NCI-H2122 (KRAS G12C); [3]) [nM]	IC50 shift fold (NCI-H2122 (KRAS G12C); NCI-H2122 (KRAS G12C)) [fold]	IC50 (SW480 (KRAS G12V); [4]) [nM]	IC50 (SW480 (KRAS G12V); read-out: No-washout IC50) [nM]	IC50 shift fold (SW480 (KRAS G12V)) [fold]	IC50 (NCI-H358 (KRAS G12C); [5]) [nM]	IC50 (NCI-H358 (KRAS G12C); [6]) [nM]	IC50 shift fold (NCI-H358 (KRAS G12C); NCI-H358 (KRAS G12C)) [fold]	Hepatic clearance (Human) (human hepatocytes) [mL/min/kg]	IC50 (WT HRAS-BRAF complex) [nM]	IC50 (WT KRAS-BRAF complex) [nM]	IC50 [1] [nM]
CCn1c(-c2cc(N3CCN(C)CC3)cnc2[C@H](C)OC)c2c3cc(ccc31)-c1csc(n1)C[C@H](NC(=O)[C@H]1C[C@@H]1C)C(=O)N1CCC[C@H](N1)C(=O)OCC(C)(C)O2 [Example A122, reference compound]	29	8	3.6	47.3	2.4	19.7	32.1	2	16.2	9	10	16	1.9
CO[C@@H](C)c1ncc(N2CCN(C)CC2)cc1-c1c2c3cc(cc4c3n1CCC4)-c1csc(n1)C[C@H](NC(=O)[C@H]1[C@H](C)[C@@H]1C)C(=O)N1CCC[C@H](N1)C(=O)OCC(C)(C)C2 (atropisomer, axis not shown; (M)) [Example 24, (1r,2R,3S)-N-[(7S,13S)-(20M)-20-[2-[(1S)-1-methoxyethyl]-5-(4-methylpiperazin-1-yl)-3-pyridyl]-17,17-dimethyl-8,14-dioxo-15-oxa-4-thia-9,21,30,31-tetrazahexacyclo[23.3.1.1^2,5.1^9,13.0^19,27.0^21,26]hentriaconta-1 (28),2,5 (31), 19,25 (29),26-hexaen-7-yl]-2,3-dimethyl-cyclopropanecarboxamide]	9	6.7	1.3	8.4	1.3	6.7	5.9	1	5.6	3.4	38	32	0.95
